This is an account of results in PubChem BioAssay AID1996.

Values after ≈ are worked out from the molar mass of the structure shown. Where only a bound is given, the exact number is not on record here.

For the series the following is noted: buffer; pH 7.4; 200.0 µM.
In turn, `CC(=O)C1=C(O)C(=O)N(Cc2ccccc2)C1c1ccc(F)cc1` (stereo not drawn) displayed a kinetic solubility above 48.8 µg/mL.
For `O=C(CSc1ncccn1)NC1CCS(=O)(=O)C1` (stereo not drawn) the value was 39.7 µg/mL (≈ 138 µM).
For `O=C1c2cc([N+](=O)[O-])ccc2-c2ncccc21` the value was 7.4 µg/mL (≈ 32.7 µM); for `O=C(Nc1ccccc1)OCCOc1ccc(Br)cc1`, below 0.7 µg/mL; for `Cc1cc(NC(=O)c2cc([N+](=O)[O-])cc([N+](=O)[O-])c2)no1`, 9.8 µg/mL (≈ 33.5 µM).
Next, `OC(CNCc1ccc2c(c1)OCO2)COc1ccccc1` (stereo not drawn): above 45.2 µg/mL; `COCCCNC(=O)c1ccc(CSCc2ccc(C)cc2)o1`: 49.8 µg/mL (≈ 149 µM).
For the compound `O=C(NCc1ccc(Cl)cc1)N1CCOCC1`, the solubility (kinetic) is above 38.2 µg/mL.
`CN(C(=O)c1ccco1)c1nc(-c2ccc(Cl)cc2)cs1` returned a solubility (kinetic) of 0.9 µg/mL (≈ 2.82 µM).
Next, `O=C(COC(=O)c1c(F)cccc1F)Nc1ccc(N2CCCCC2)cc1`: 5.2 µg/mL (≈ 13.9 µM).
Next, `Br.CN1CCN(C(=O)Cc2ccccc2)CC1`: above 44.9 µg/mL; `O=C(Cn1cc(C(F)(F)F)ccc1=O)N1CCc2ccccc21`: 25.2 µg/mL (≈ 78.2 µM).
Next, `Cc1ccccc1C(=O)OCC(=O)NCC1COc2ccccc2O1` (stereo not drawn): 40.9 µg/mL (≈ 120 µM).
For `CC(=O)c1cccc(OCC(O)CNCCOc2ccc(C)cc2)c1` (stereo not drawn), the kinetic solubility was 47.6 µg/mL (≈ 139 µM).
Next, `Cc1cnc(C(=O)OCC(=O)NCc2cccc(Cl)c2)cn1`: above 48 µg/mL.
Next, `CN1C(=O)NC(c2ccccc2[N+](=O)[O-])C2=C1CCCC2=O` (stereo not drawn): above 45.2 µg/mL; `CN(C)CCCNC(NC(=O)/C=C/c1ccccc1)C(Cl)(Cl)Cl` (stereo not drawn): 44.3 µg/mL (≈ 117 µM).
For `COc1ccc(NC(=O)Nc2ccc3c(c2)CCC3)cc1` the value was below 0.3 µg/mL; for `O=C(CC1CCCCC1)NCc1ccc(Cl)cc1`, 2.4 µg/mL (≈ 9.03 µM); for `COc1ccc(Cl)cc1C(=O)O/N=C(\N)c1ccncc1`, 32.5 µg/mL (≈ 106 µM).
`Cc1ccc(S(=O)(=O)CC(=O)N2CCN(c3ccc([N+](=O)[O-])cc3)CC2)cc1` registered a kinetic solubility of 24.7 µg/mL (≈ 61.2 µM).
For `Cc1cc(C(=O)COc2ccccc2C(N)=O)c(C)n1C` the value was 2.5 µg/mL (≈ 8.73 µM).
Next, `COC(=O)C1CCN(C(=O)c2ccc(Cl)c(S(=O)(=O)NCc3ccco3)c2)CC1`: 53.6 µg/mL (≈ 122 µM).
Next, `COCC(C)NC(=S)Nc1ccccc1[N+](=O)[O-]` (stereo not drawn): above 40.4 µg/mL; `COc1ccc(/C=C/C(=O)OCC(=O)NC2CCCC(C)C2C)c(OC)c1` (stereo not drawn): 5 µg/mL (≈ 13.3 µM); `CC(C)CNc1nc(N)c([N+](=O)[O-])c(N2CCCCCC2)n1`: 4.5 µg/mL (≈ 14.6 µM).
In turn, `CC(C)Cn1c(SCC(=O)N2CCc3ccccc3C2)nc(O)cc1=O` showed a solubility (kinetic) above 56 µg/mL.
For `Cc1ccc(C2NC(c3ccc(C)cc3)C(C)C(=O)C2C)cc1` (stereo not drawn) the value was below 0.7 µg/mL; for `Cn1c(=NC(=O)C(C)(C)C)sc2cccc(F)c21`, 1 µg/mL (≈ 3.75 µM).
Next, `COc1ccc(Br)c(C(=O)OCC(=O)NC(=O)NC2CCCC2)c1`: 19.5 µg/mL (≈ 48.8 µM).
Take `CC(=O)c1ccc(NS(=O)(=O)c2ccc(C(C)(C)C)cc2)cc1`: the solubility (kinetic) was found to be 1.7 µg/mL (≈ 5.13 µM).
`COc1ccc(CNC2CCN(Cc3ccccc3)CC2)cc1`: the kinetic solubility is above 46.6 µg/mL.
For `O=C(NCCc1ccc(Cl)cc1)c1ccc2ccccc2n1`, the kinetic solubility is 5.9 µg/mL (≈ 19 µM).
For `Cc1ccc(Cl)c2sc(NC(=O)C3=COCCO3)nc12` the value was 1.1 µg/mL (≈ 3.54 µM); for `O=C(Nc1cc(Cl)ccc1N1CCOCC1)c1cccnc1`, above 47.7 µg/mL.
`CCOc1ccc(NC(=O)[C@@H](NC(=O)c2ccco2)C(C)C)cc1`: the solubility (kinetic) was above 49.6 µg/mL.
Next, `O=C(N1CCOCC1)N1CCN(S(=O)(=O)c2ccc(Cl)cc2)C1`: 44.5 µg/mL (≈ 124 µM).
Take `CC(=O)Nc1ccc(S(=O)(=O)NCc2ccc(C)n2C)cc1`: the solubility (kinetic) was above 48.2 µg/mL.
`CC1CN(CCCCSc2ccccc2)CC(C)O1.Cl` (stereo not drawn): the kinetic solubility came to 41.8 µg/mL.
For `C=CCOc1ccc(/C=C2/C(=O)ON=C2C)cc1OC` the value was 26.2 µg/mL (≈ 95.9 µM); for `COc1ccc(N=Cc2nc(-c3ccccc3)oc2OC(C)=O)cc1`, 1.6 µg/mL (≈ 4.76 µM); for `CCCCNC(=O)N1CCCN(c2ccc(C#N)cn2)CC1`, above 45.2 µg/mL.
Next, `O=C(OCCC1Oc2cccnc2NC1=O)c1ccc(F)cc1` (stereo not drawn): 4.8 µg/mL (≈ 15.2 µM).
For `Cc1cc(NC(=O)CC2CCCC2)ccc1Br` the value was 1.6 µg/mL (≈ 5.4 µM); for `CC(C)c1ccc(C(O)P(=O)(OCc2ccccc2)c2ccc(N(C)C)cc2)cc1` (stereo not drawn), 6.2 µg/mL (≈ 14.6 µM).
Turning to `O=S(=O)(c1c(Cl)cc(Br)cc1Cl)N1CCN(C(=S)NC2CC2)CC1`, the kinetic solubility was determined as 5.3 µg/mL (≈ 11.2 µM).
For `CCC(C)NC(=O)COCc1cc(-c2ccc3c(c2)OCO3)on1` (stereo not drawn) the value was above 49.9 µg/mL.
Next, `Cc1nc2ccc(NC(=O)C3CCCCC3)cc2s1`: 13.2 µg/mL (≈ 48.1 µM).
Next, `COc1cc(C(=O)NC(c2ccccc2)c2ccccc2)cc(OC)c1C`: below 0.8 µg/mL; `CC(C)c1ccc(OCC(=O)NC(C)c2ccccc2)cc1` (stereo not drawn): 16.5 µg/mL (≈ 55.5 µM).
In turn, `C=CCOC(=O)C1=C(C)NC(=O)NC1c1ccc2c(c1)OCO2` (stereo not drawn) displayed a solubility (kinetic) of 43.4 µg/mL (≈ 137 µM).
For `CCOC(=O)c1cccc(NC(=O)c2ccccc2C)c1` the value was 33.1 µg/mL (≈ 117 µM); for `CC(C)N1CCC(=NNC(=O)c2cccs2)CC1`, above 39.8 µg/mL; for `CCC(=O)OCCn1c(=O)c2ccccc2c2ccccc2c1=O`, above 48.5 µg/mL.
In turn, `COC(=O)c1c(Sc2ccccc2)c2ccccc2n1C` displayed a kinetic solubility below 0.6 µg/mL.
Take `CC(CN1CCN(Cc2ccccc2)CC1)c1ccccc1.O=C(O)C(=O)O` (stereo not drawn): the kinetic solubility was 7.2 µg/mL.
For `CCN1CCN(C(CNS(=O)(=O)c2cccs2)c2cccnc2)CC1` (stereo not drawn) the value was 49.3 µg/mL (≈ 130 µM).
Take `CC(C)(C)C(=O)Nc1nc2cc3c(cc2s1)OCO3`: the solubility (kinetic) turned out to be 0.6 µg/mL (≈ 2.16 µM).
For `O=S(=O)(CC(c1ccccc1)N1CCCCC1)c1ccc(Cl)cc1` (stereo not drawn) the value was 4.2 µg/mL (≈ 11.5 µM); for `COc1cccc(CNC(=O)CCNC(=O)c2ccccc2OC)c1`, above 51.4 µg/mL.
In turn, `NCCc1cnc[nH]1` displayed a solubility (kinetic) of 14.1 µg/mL (≈ 127 µM).
Next, `O=C(Nc1cc(S(=O)(=O)N2CCOCC2)ccc1N1CCOCC1)c1ccc([N+](=O)[O-])s1`: 6.1 µg/mL (≈ 12.6 µM).
For `NC(=O)COC(=O)c1ccc2noc(-c3ccccc3)c2c1` the value was 26.1 µg/mL (≈ 88.1 µM); for `N#C/C(=C/c1cccc(O)c1)C(=O)NCc1ccc(Cl)cc1`, 1.3 µg/mL (≈ 4.16 µM).
`COC(=O)c1c(C)[nH]c(C(=O)/C=C/c2ccccc2F)c1C` returned a solubility (kinetic) of 0.8 µg/mL (≈ 2.66 µM).
Next, `COc1ccc(CNc2cc(NCCCO)c([N+](=O)[O-])c3nonc23)cc1`: 45.7 µg/mL (≈ 122 µM).
For `Cc1ccccc1/C=C/c1cccc[n+]1C.[I-]`, the solubility (kinetic) is above 50.6 µg/mL.
For `Cc1cc2c(sc3c(C)ccc(C)c32)c(C)n1.Cl` the value was below 0.6 µg/mL; for `Cc1cc(C)c2cc(C(=O)Nc3ccc(C)c(F)c3)[nH]c2c1`, 0.8 µg/mL (≈ 2.7 µM); for `CC(C)[C@H](NC(=O)c1ccc([N+](=O)[O-])cc1Cl)C(=O)N1CCN(C/C=C/c2ccccc2)CC1`, 44.3 µg/mL (≈ 91.3 µM).
Next, `N#Cc1c(C(F)(F)F)cc(-c2ccc(F)cc2)nc1SCC(=O)O`: 51.2 µg/mL (≈ 144 µM); `Cc1ccc(CN(C)CC(=O)Nc2ccc3c(c2)CCC3)cc1`: 5.4 µg/mL (≈ 17.5 µM).
For `CC(C)CCNC(=O)NC(=O)CSc1ncccn1` the value was 28.9 µg/mL (≈ 102 µM).
